# Reference: patent publication US7608585B2, “Compositions for inhibition of necrosis induced by a neurotrophin” (Neurotech Pharmaceuticals Co., Ltd., priority 2004, dated 2009)
# Read-outs that look alike come from different tables or passages of the source.
# Tests used:
# [1] = test system: BDNF-induced neuronal death in cortical cell cultures; experiment: Protection against BDNF-induced neuronal death, LDH efflux; type: cell-based, Rat; details: for BDNF neurotoxicity / BDNF-induced neuronal cell necrosis (LDH efflux): 100 ng/ml BDNF, 36 hr, 100 μg/ml anti-BDNF antibody, 100 μM trolox, 1 μg/ml cycloheximide; for Swelling of neuronal cell body and neuronal death: 36 hr after exposure to BDNF, 3-10 nM DPI, 10-30 μM AEBSF
# Description: Cortical cell cultures (DIV 12-15) were exposed to 100 ng/ml BDNF, alone or in the presence NADPH oxidase inhibitors, 3-10 nM DPI, 10-30 μM 4-(2-amonoethyl)-benzensulfonyl fluoride (AEBSF), or 1 μM 2-Hydroxy-TTBA ((2-Hydroxy-5-(2,3,5,6-tetrafluoro-4-trifluoromethyl-benzylamino)-benzoic acid). Neuronal death was analyzed 36 hr later by measurement of LDH efflux into the bathing medium.
# [2] = test system: Neuron-rich cortical cell cultures; experiment: Serum deprivation-induced neuronal apoptosis, counting viable neurons; type: cell-based, Rat; details: for Anti-apoptotic action of BDNF on inclusion of the substance: 100 ng/ml BDNF plus 3 nM DPI or 100 μM trolox; for Serum deprivation-induced neuronal apoptosis: alone, without BDNF; for Serum deprivation-induced neuronal apoptosis / Delayed neuronal death evolving in the presence of BDNF: 3 nM DPI, 100 μM trolox; for Delayed neuronal death evolving in the presence of BDNF: concurrent addition, 48 hr
# Description: (§1) For neuron-glia mixed cultures, 10 μM cytosine arabinoside (Ara C) was included to stop the overgrowth of non-neuronal cells to cultures at DIV 5-7 when glial cells were confluent underneath neurons. After 2 days, cultures were then fed with plating medium lacking fetal serum twice a week. Cultures were maintained at 37° C. in a humidified 5% CO2 incubator. For neuron-rich cultures (>95%), 2.5 μM Ara C was included to cultures at 2-3 days in vitro (DIV 2-3) as previously described (Gwag et al., 1997).
# (§2) Mixed cortical cell cultures (DIV 12-14) were rinsed in serum free MS (MEM supplemented with 26.5 mM sodium bicarbonate and 21 mM glucose) and then exposed to various concentrations of NGF, BDNF or NT-3 in serum free MS. Neuronal cell death was analyzed by measuring the level of lactate dehydrogenase (LDH) released into the bathing medium. The percent neuronal death was normalized to the mean LDH value released after a sham control (defined as 0%) or continuous exposure to 500 μM NMDA for 24 hr (defined as 100%) The latter produces complete neuronal death within 24 hr. For experiments for serum deprivation, neuron-rich cortical cell cultures (DIV 7) were placed into serum free MS containing 1 μM MK-801 as described (Gwag et al., 1995). Neuronal death was analyzed 24 and 48 hr later by counting viable neurons excluding Trypan Blue satained.
# Neuron-rich cortical cell cultures (DIV 7) were deprived of serum, alone (serum deprivation) or in the presence of 100 ng/ml BDNF, 100 ng/ml BDNF plus 3 nM DPI, 3 nM DPI, 100 ng/ml BDNF plus 100 μM trolox, or 100 μM trolox. Neuronal death was assessed 24 hr and 48 hr later by counting viable neurons.
# ROS in cortical neurons = experiment: ROS imaging by oxidized DCDHF-DA (DCF) and hydroethidine fluorescence; type: cell-based, Rat; details: for BDNF-induced production of [ROS]i: concurrent addition with 100 ng/ml BDNF, 32 hr
# Description: Cortical cell cultures (DIV 12-15) grown on glass bottom dishes were loaded with 10 μM dichlorodihydro fluorescein diacetate (DCDHF-DA) or 5 μM hydroethidium (Molecular Probes, Eugene, Oreg.) plus 2% Pluronic F-127 in HEPES-buffered control salt solution (HCSS) buffer containing (in mM): 120 NaCl, 5 KCl, 1.6 MgCl2, 2.3 CaCl2, 15 glucose, 20 HEPES, and 10 NaOH. Cultures were incubated for 20 min at 37° C., and washed three times with HCSS buffer. […] The fluorescence images were analyzed using a QuantiCell 700 system (Applied imaging, UK).
# Superoxide production through activation of NADPH oxidase was analyzed by measuring the oxidation of HEt and DCDHF to ethidium and DCF, respectively, in cortical neurons after exposure to a sham operation, 100 ng/ml BDNF, or 100 ng/ml BDNF plus 3 nM DPI for 32 hr (FIG. 15).
# [3] = test system: free radical neurotoxicity; details: as anti-oxidants; cited from earlier work
# [4] = test system: Mixed cortical cell cultures; type: cell-based, Rat
# Description: Rat cortical cell cultures were prepared from the 17-day-old fetal brain and the neocortices were mechanically triturated as previously described (Noh and Gwag, 1997). Dissociated cells were plated on 6-well plates and 24-well plates (approximately 3 cortices per plate), or on glass bottom 35 mm dishes for ROS imaging. Plating media consist of Eagle's minimal essential media (MEM, Earle's salts, supplied glutamine-free) supplemented with 5% horse serum, 5% fetal bovine serum, 21 mM glucose, 26.5 mM bicarbonate and 2 mM L-glutamine.
# as §1
# To examine if neurotrophins would induce neuronal necrosis, BDNF-induced neuronal death was analyzed by measuring the level of lactate dehydrogenase (LDH) released into the bathing medium.
# as §2
# Neuronal cell death was assessed by measurement of LDH efflux to the bathing medium, mean±SEM (n=16 culture wells per condition). *, Significant difference from the relevant control (sham washed control), at P<0.05 using analysis of variance and Student-Newman-Keuls test.
# cortical neurons = type: cell-based
# Description: To examine the patterns of BDNF-induced neuronal death, we observed neurons from 32 hrs after a sham wash or continuous exposure to 100 ng/ml BDNF under phase contrast or transmission electron microscope.
# Cultures were fixed in Karnovskys fixative solution (1% paraformaldehyde, 2% glutaraldehyde, 2 mM calcium cholride, 100 mM cacodylate buffer, pH 7.4) for 2 hr, washed with cacodylate buffer, and post-fixed in 1% osmium tetroxide and 1.5% potassium ferrocyanide for 1 hr. Cells were then stained en bloc in 0.5% uranyl acetate, dehydrated through graded ethanol series, and embedded in Poly/Bed 812 resin (Pelco, Calif.). Cells were sectioned using Reichert Jung Ultracut S (Leica, Cambridge, UK). After staining cells with uranyl acetate and lead citrate, cells were observed and photographed under Zeiss EM 902A.
# [5] = 36 hr after 100 ng/ml BDNF, 3 nM DPI, 10 μM AEBSF, 1 μM 2-Hydroxy-TTBA
molecule,measurement,setting,value
Cc1c(C)c2c(c(C)c1O)CCC(C)(C(=O)O)O2 (stereo not shown) [trolox],BDNF neurotoxicity / BDNF-induced neuronal cell necrosis (LDH efflux),[1],blocked
same,Anti-apoptotic action of BDNF on inclusion of the substance,[2],insensitive
same,Serum deprivation-induced neuronal apoptosis,[2],Neither DPI nor trolox alone reduced
same,Delayed neuronal death evolving in the presence of BDNF,[2],attenuated
same,BDNF-induced production of [ROS]i,ROS in cortical neurons,prevented
"O=C(O)c1cc(NCc2c(F)c(F)c(C(F)(F)F)c(F)c2F)ccc1O [2-Hydroxy-TTBA, 2-Hydroxy-5-(2,3,5,6-tetrafluoro-4trifluoromethyl-benzylamino)-benzoic acid]",Neuronal necrosis (LDH efflux),[1]; [5],significantly reduced
same,Free radical neurotoxicity,[3],block free radical neurotoxicity
"O=C(O)c1cc(NCc2ccc(F)cc2)ccc1O [FBAS, 5-(4-fluorobenxyl) aminosalicylic acid]",Free radical neurotoxicity,[3],block free radical neurotoxicity
"NT-3: neurotrophin-3, a neurotrophin",Cell necrosis induced by neurotrophin,[4],derives cell necrosis
same,Neuronal death (LDH efflux to the bathing medium),[4],Near complete neuronal death
"NCCc1ccc(S(=O)(=O)F)cc1 [AEBSF, 4-(2-amonoethyl)-benzensulfonyl fluoride]",Neuronal necrosis (LDH efflux),[1]; [5],significantly reduced
same,Swelling of neuronal cell body and neuronal death,[1],significantly reduced
"C[C@@H]1C[C@@H]([C@H](O)CC2CC(=O)NC(=O)C2)C(=O)[C@@H](C)C1 [cycloheximide, reference compound]",BDNF neurotoxicity / BDNF-induced neuronal cell necrosis (LDH efflux),[1],blocked
same,BDNF-induced production of [ROS]i,ROS in cortical neurons,prevented
COc1ccc(CNc2ccc(O)c(C(=O)O)c2)cc1 [MBAS],Free radical neurotoxicity,[3],block free radical neurotoxicity
"c1ccc2c(c1)[I+]c1ccccc1-2 [DPI, diphenylene iodonium]",Neuronal necrosis (LDH efflux),[1],significantly reduced
same,Swelling of neuronal cell body and neuronal death,[1],significantly reduced
same,Anti-apoptotic action of BDNF on inclusion of the substance,[2],insensitive
same,Serum deprivation-induced neuronal apoptosis,[2],Neither DPI nor trolox alone reduced
same,Delayed neuronal death evolving in the presence of BDNF,[2],attenuated
same,BDNF-induced superoxide production (oxidation of HEt and DCDHF),ROS in cortical neurons,completely blocked
"BDNF: brain-derived neurotrophic factor, a neurotrophin (protein, UniProt P23560 19-247, looked up) Neurotrophic factor BDNF …: APMKEANIRGQGGLAYPGVRTHGTLESVNGPKAGSRGLTSLADTFEHVIEELLDEDQKVRPNEENNKDADLYTSRVMLSSQVPLEPPLLFLLEEYKNYLDAANMSMRVRRHSDPARRGELSVCDSISEWVTAADKKTAVDMSGGTVTVLEKVPVSKGQLKQYFYETKCNPMGYTKEGCRGIDKRHWNSQCRTTQSYVRALTMDSKKRIGWRFIRIDTSCVCTLTIKRGR",Pattern of neuronal death under transmission electron microscope,cortical neurons,induced neuronal necrosis
same,Cell necrosis induced by neurotrophin,[4],derives cell necrosis
same,Neuronal death (LDH efflux to the bathing medium),[4],Near complete neuronal death
"NT-4/5: a neurotrophin (protein, UniProt P34130 81-210, looked up) Neurotrophin-4: GVSETAPASRRGELAVCDAVSGWVTDRRTAVDLRGREVEVLGEVPAAGGSPLRQYFFETRCKADNAEEGGPGAGGGGCRGVDRRHWVSECKAKQSYVRALTADAQGRVGWRWIRIDTACVCTLLSRTGRA",Cell necrosis induced by neurotrophin,[4],derives cell necrosis
